In patent US4322411A, “Anti-inflammatory nucleosides” (Burroughs Wellcome Co., priority 1980, dated 1982):
Like-named read-outs stand apart in the source and are kept apart here.

Key:
inflammation = test: Anti-inflammatory effectiveness by route; assay type: in vivo; settings: result in words
[1] = Side effects (gastric damage, platelet aggregation, steroid side effects)
[2] = test system: established adjuvant arthritis; test: Established adjuvant arthritis; assay type: in vivo, rat; settings: for ED25: Rattus norvegicus, po, 1008 h, read-out: Established Arthritis ED25 on Day 42
Experimental: (§1) There were 5 animals in each drug-treated group. For developing adjuvant arthritis the drugs were administered in the diet from day 1 to day 16. For established adjuvant arthritis the drugs were administered from day 21 to day 42.

Antipyretic activity = settings: in vivo
[3] = test system: developing adjuvant arthritis; test: Developing adjuvant arthritis; assay type: in vivo, rat; settings: for ED50: Rattus norvegicus, po, 384 h, read-out: Developing Arthritis ED50 on Day 16
Experimental: as §1

cyclooxygenase pathway = test: Inhibition of prostaglandin metabolism in vitro, cyclooxygenase pathway; assay type: biochemical
[4] = test system: carrageenan pleurisy (3 hr exudate volume); test: Local anti-inflammatory activity: Carrageenan Pleurisy Assay (CPA), intrapleural; assay type: in vivo, rat; settings: 3 hr Vol
Description: Local Anti-Inflammatory Activity of 3-Deazaadenosine: Carrageenan Pleurisy Assay (CPA)
Following the procedure described by Vinegar et al., Eur. J. Rheum. Inflam. […] There were 5 animals in each drug-treated group and the control group.

liver = test: Liver damage in animal models; assay type: in vivo; settings: in the animal models used
Water solubility = assay type: physicochemical
lipoxygenase pathway = test: Inhibition of prostaglandin metabolism in vitro, lipoxygenase pathway; assay type: biochemical
Half life = settings: in vivo
[5] = in vivo; cited from earlier work
immune response = settings: in vivo; cited from earlier work
Analgesic activity = settings: in vivo
[6] = test system: carrageenan pleurisy (3 hour pleural exudate volume); test: Duration of action of anti-inflammatory activity (Carrageenan Pleurisy Assay); assay type: in vivo, rat; settings: for duration of action (time of drug administration prior to carrageenan injection at which inhibition of 3 hour pleural exudate volume declined to 40%): single oral pretreating dose
Experimental: Following the procedure previously described by Vinegar et al. in Proc. Soc. Exp. Biol. Med., 143, 711 (1973) and recently modified (Vinegar et al., Eur. J. Rheum. Inflam. 1, 204 (1978)) the acute anti-inflammatory activity of 3-deazaadenosine was compared with that of known anti-inflammatory drugs. The average 3 hr exudate volume for each drug-treated group was determined and the % inhibition relative to solvent-fed control animals calculated, the ED50 (mg/kg of body wt) being the dose required to reduce the 3 hr exudate volume by 50%. There were 5 animals in each drug-treated group and the control group.
Duration of action of anti-inflammatory activity of 3-deazaadenosine
By means of the Carrageenan Pleurisy Assay of Example 1 the duration of action of the test compounds after a single oral pretreating dose was determined. For 3-deazaadenosine the effect lasted for 14.9 hours at 6 mg/kg (p.o.) whilst for aspirin (150 mg/kg p.o.) and acetaminophen (220 mg/kg p.o.) the effect lasted […] and 2 hours, respectively. This value represents the time (hours) of drug administration prior to the injection of carrageenan in which the inhibition of the 3 hour pleural exudate volume declined to 40%.

Therapeutic index = settings: in vivo

With `Nc1nccc2c1ncn2[C@@H]1O[C@H](CO)[C@@H](O)[C@H]1O` [3-Deazaadenosine, 4-amino-1-β-D-ribofuranosyl-1H-imidazo[4,5-c]-pyridine] the “anti-inflammatory effectiveness by route” value (inflammation) was “effective orally, systemically and locally”, the “side effects of the anti-inflammatory steroids” value [1] was “free of the side effects of the anti-inflammatory steroids” and the “side effects associated with prostaglandin inhibitors (gastric damage, inhibition of platelet aggregation)” value ([1]; inferred from lack of inhibition of prostaglandin metabolism) was “free of the side effects”. For the same compound, the ED25 ([2]; from day 21 to day 42, parentheses indicate an approximate value) was ~18 mg/kg/day, the “inhibition of established adjuvant arthritis” value ([2]; result in words) was “inhibit both developing and established adjuvant arthritis” and the antipyretic activity (Antipyretic activity) was “not antipyretic”. For the same compound, the ED50 ([3]; in diet from day 1 to day 16) was 8 ± 2.8 mg/kg, the “inhibition of developing adjuvant arthritis” value ([3]; result in words) was “inhibit both developing and established adjuvant arthritis” and the “inhibition of prostaglandin metabolism via cyclooxygenase pathway” value (cyclooxygenase pathway) was “does not inhibit”. The ED50 [4] was 0.05 mg/rat, the liver damage (liver) was “does not cause liver damage” and the water solubility (Water solubility) was “high”. For the same compound, the “inhibition of prostaglandin metabolism via lipoxygenase pathway” value (lipoxygenase pathway) was “does not inhibit”, the half life (Half life) was “short” and the “dose required for antiviral activity” value [5] was 100-200 mg/kg per day. The “dose required for immunesuppression” value (immune response) was “more than 30 mg/kg”, the “analgesic activity per se” value (Analgesic activity) was “has not analgesic activity per se” and the “duration of action (time of drug administration prior to carrageenan injection at which inhibition of 3 hour pleural exudate volume declined to 40%)” value ([6]; 6 mg/kg p.o.) was 14.9 h. For the same compound, the duration of action ([6]; general statement, no dose given) was “about 15 hours” and the therapeutic index (Therapeutic index) was “high”.
For `CC(=O)Oc1ccccc1C(=O)O` [Aspirin, reference compound], the ED25 [2] was < 150 mg/kg/day, the ED50 [3] was 150 ± 53.1 mg/kg and the ED50 [4] was 0.04 mg/rat. The “duration of action (time of drug administration prior to carrageenan injection at which inhibition of 3 hour pleural exudate volume declined to 40%)” value ([6]; 150 mg/kg p.o.) was 35 h.
For `C[C@]12CCC(=O)C=C1CC[C@@H]1[C@@H]2[C@@H](O)C[C@@]2(C)[C@H]1CC[C@]2(O)C(=O)CO` [Hydrocortisone], the ED50 [4] was < 0.1 mg/rat.
For `C[C@]12C=CC(=O)C=C1CC[C@@H]1[C@@H]2[C@@H](O)C[C@@]2(C)[C@H]1CC[C@]2(O)C(=O)CO` [Prednisolone, reference compound], the ED25 [2] was 0.2 mg/kg/day and the ED50 [3] was 1 mg/kg.
For `CC(=O)Nc1ccc(O)cc1` [acetaminophen, reference compound], the liver damage (liver) was “cause liver damage” and the “duration of action (time of drug administration prior to carrageenan injection at which inhibition of 3 hour pleural exudate volume declined to 40%)” value ([6]; 220 mg/kg p.o.) was 2 h.
